Laboratory results taken from ChEMBL document CHEMBL1201862, “PubChem BioAssay data set” (2004).
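Five compound concentrations were applied to cells in 96-well plates for 48 hours; endpoints were derived by simple linear interpolation of the resulting dose-response curve. Here, GI50 denotes the concentration required for 50% inhibition of growth.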 Activity calls are given as the source filed them. Cut-off read from the data, not from the text of the source: active = GI50 up to about 1.1 µM and inactive = higher.

Experiments:
Experiment in all cases: inhibition of tumour cell growth, NCI panel, 48 h
HCC 2998 = test system: HCC 2998
HOP-62 = test system: HOP-62
DLD-1 = test system: DLD-1
ACHN = test system: ACHN
HCT-15 = test system: HCT-15
LOX IMVI = test system: LOX IMVI
EKVX = test system: EKVX
HT-29 = test system: HT-29
SNB-75 = test system: SNB-75
K562 = test system: K562
SK-MEL-5 = test system: SK-MEL-5
CAKI-1 = test system: CAKI-1
OVCAR-3 = test system: OVCAR-3

Row | Structure (SMILES) | GI50 (HCC 2998) | GI50 (HOP-62) | GI50 (DLD-1) | GI50 (ACHN) | GI50 (HCT-15) | GI50 (LOX IMVI) | GI50 (EKVX) | GI50 (HT-29) | GI50 (SNB-75) | GI50 (K562) | GI50 (SK-MEL-5) | GI50 (CAKI-1) | GI50 (OVCAR-3)
1 | O=C1CCC2(c3ccc(Cl)cc3)Nc3ccccc3N12 (configuration not stated) | > 100 µM (inactive) | > 100 µM (inactive) | 71 µM (inactive) | 60.4 µM (inactive) | 97.1 µM | > 100 µM (inactive) | > 100 µM (inactive) | > 100 µM (inactive) | 19.3 µM (inactive) | 54.5 µM (inactive) |  |  | 
2 | Cc1coc2c1C(=O)C(=O)c1ccccc1-2 | 1.9 µM (inactive) | 1.64 µM (inactive) | 1.98 µM (inactive) |  | 1.27 µM | 0.305 µM (active) |  | 1.8 µM (inactive) | 1.72 µM (inactive) | 0.335 µM (active) | 0.56 µM (active) | 1.86 µM (inactive) | 1.06 µM (active)
3 | O=C(NC(Cc1ccccc1)C(=O)CCl)OCc1ccccc1 (configuration not stated) | 18.1 µM (inactive) | 15.3 µM (inactive) | 9.64 µM (inactive) | 10.1 µM (inactive) | 5 µM | 1.76 µM (inactive) |  | 16.6 µM (inactive) | 11.5 µM (inactive) | 3.2 µM (inactive) | 13.4 µM (inactive) | 5.15 µM (inactive) | 5.24 µM (inactive)
4 | COc1cccc(C2SCc3nc4ccccc4n32)c1 (configuration not stated) | 45.6 µM (inactive) | > 100 µM (inactive) | 88.1 µM (inactive) | 39.1 µM (inactive) | 38.8 µM | 54.6 µM (inactive) | 46.3 µM (inactive) | 41.9 µM (inactive) | 53 µM (inactive) | 45.4 µM (inactive) | 21.1 µM (inactive) | 37.9 µM (inactive) | 35.2 µM (inactive)
5 | C/C(CCN(C)C)=N\OC(=O)c1ccccc1 | > 100 µM (inactive) | > 100 µM (inactive) | > 100 µM (inactive) | > 100 µM (inactive) |  | > 100 µM (inactive) | > 100 µM (inactive) | > 100 µM (inactive) | 50.8 µM (inactive) | > 100 µM (inactive) | > 100 µM (inactive) | > 100 µM (inactive) | > 100 µM (inactive)
6 | COc1cc2c3c(c1OC)Oc1ccc(cc1)CC1c4c(cc(OC)c(OC)c4Oc4ccc(cc4)CC3N(C)CC2)CCN1C (configuration not stated) | 14 µM (inactive) | 22.4 µM (inactive) | 29.2 µM (inactive) | 26.2 µM (inactive) |  | 17.7 µM (inactive) | 67.6 µM (inactive) | 15.1 µM (inactive) | 21.8 µM (inactive) | 16.9 µM (inactive) | 16.7 µM (inactive) | 90.6 µM (inactive) | 18.6 µM (inactive)
7 | CCOC(=O)C1=C(Nc2ccc(Cl)c(Cl)c2)OC/C1=N\NC(=O)Cc1ccccc1 | > 100 µM (inactive) | > 100 µM (inactive) | > 100 µM (inactive) |  |  | > 100 µM (inactive) | > 100 µM (inactive) |  | > 100 µM (inactive) | 89.1 µM (inactive) | > 100 µM (inactive) | > 100 µM (inactive) | > 100 µM (inactive)
8 | CC1=CC2C(=O)N(c3ccccc3)C(=O)C2CC1n1[nH]c(=O)n(Cc2ccccc2)c1=O (configuration not stated) | > 100 µM (inactive) | > 100 µM (inactive) | > 100 µM (inactive) | > 100 µM (inactive) | > 100 µM | > 100 µM (inactive) | > 100 µM (inactive) | > 100 µM (inactive) | > 100 µM (inactive) | > 100 µM (inactive) | > 100 µM (inactive) | > 100 µM (inactive) | > 100 µM (inactive)
9 | CN1CCCC2(CCCc3ccccc32)C1 (configuration not stated) | > 100 µM (inactive) | > 100 µM (inactive) | > 100 µM (inactive) | > 100 µM (inactive) | > 100 µM | > 100 µM (inactive) | > 100 µM (inactive) | > 100 µM (inactive) | > 100 µM (inactive) | > 100 µM (inactive) | > 100 µM (inactive) | > 100 µM (inactive) | > 100 µM (inactive)
10 | CC(=O)N(CCN)CCN | > 10 µM (inactive) | > 10 µM (inactive) | > 100 µM (inactive) | > 100 µM (inactive) | > 100 µM | > 10 µM (inactive) | > 100 µM (inactive) |  | > 100 µM (inactive) | > 10 µM (inactive) | > 100 µM (inactive) | > 10 µM (inactive) | > 10 µM (inactive)
11 | COc1ccc(C2C(Cl)C(=O)N2NC(=O)Cc2ccccc2)cc1OC (configuration not stated) | > 100 µM (inactive) | > 100 µM (inactive) | > 100 µM (inactive) | > 100 µM (inactive) | > 100 µM | > 100 µM (inactive) | > 100 µM (inactive) | > 100 µM (inactive) | > 100 µM (inactive) | > 100 µM (inactive) | > 100 µM (inactive) | > 100 µM (inactive) | > 100 µM (inactive)
12 | COC(=O)C1=CC(=O)[C@@H]2CCCC[C@H]12 | > 100 µM (inactive) | > 100 µM (inactive) | > 100 µM (inactive) | > 100 µM (inactive) | > 100 µM |  |  |  | > 100 µM (inactive) | > 100 µM (inactive) |  | > 100 µM (inactive) | > 100 µM (inactive)
13 | Cc1ccccc1C(=O)c1ccccc1O | > 100 µM (inactive) | > 100 µM (inactive) | > 100 µM (inactive) | > 100 µM (inactive) | > 100 µM | > 100 µM (inactive) | > 100 µM (inactive) | > 100 µM (inactive) | > 79.6 µM (inactive) | > 100 µM (inactive) | > 100 µM (inactive) | > 84.3 µM (inactive) | > 100 µM (inactive)
14 | CCC(C)n1c(C)nc2c1C(=O)c1ccccc1C2=O (configuration not stated) | 60.8 µM (inactive) | 58.2 µM (inactive) | 27.2 µM (inactive) | 46.9 µM (inactive) | 27.2 µM | 23.1 µM (inactive) | 96.8 µM (inactive) | 40.4 µM (inactive) | 42.8 µM (inactive) | 34 µM (inactive) | 26.9 µM (inactive) |  | 32.5 µM (inactive)
15 | CC1=C(Cl)C=CP(=O)(OC(C)C)C1 (configuration not stated) | > 100 µM (inactive) | > 100 µM (inactive) | 35.7 µM (inactive) | > 100 µM (inactive) | > 100 µM |  | > 100 µM (inactive) | > 100 µM (inactive) | 0.39 µM (active) | 47.4 µM (inactive) | > 100 µM (inactive) |  | > 100 µM (inactive)
16 | CCOc1cc(/C=C/C=C/c2ccc(N(C)C)cc2)[s+]c2ccccc12 | 59.6 µM (inactive) | 7.71 µM (inactive) | 23.9 µM (inactive) | 30.5 µM (inactive) | 13.8 µM | 15.4 µM (inactive) | 34.5 µM (inactive) | 35.8 µM (inactive) | 28.4 µM (inactive) | 4.85 µM (inactive) | 11.8 µM (inactive) | 23.7 µM (inactive) | 14.2 µM (inactive)
17 | COc1ccc(NN=C2C(=O)CCC2=O)cc1 | > 100 µM (inactive) | 50 µM (inactive) | > 100 µM (inactive) | 74.3 µM (inactive) | > 100 µM | > 100 µM (inactive) | > 100 µM (inactive) | > 100 µM (inactive) | > 100 µM (inactive) | > 100 µM (inactive) | 48.2 µM (inactive) | > 100 µM (inactive) | > 100 µM (inactive)
